# In paper PMC6384738, “Structure-Function Studies of Polymyxin B Lipononapeptides” (Molecules, 2019):
# Where a SMILES comes first, the peptide text is derived from it. Bridges are numbered along the chain shown (N, C = ends). [ ]: non-standard residue; d: D form. The star is where a group is joined. Butanoyl(4-OPh) = O=C(CCCOc1ccccc1)*; dDab = NCC[C@@H](N)C(=O)O; hSer = N[C@@H](CCO)C(=O)O; Octanoyl = CCCCCCCC(=O)*; Dab = NCC[C@H](N)C(=O)O
# Legend:
# [1] = in vitro; conditions: human
# Description: (§1) All compounds synthesised in this study were assessed for their minimum inhibitory concentrations (MIC, mg/L) by broth microdilution assay against five antibiotic-sensitive and resistant ATCC reference strains covering the Gram-negative ESKAPE pathogens (Escherichia coli, Klebsiella pneumoniae, A. baumannii, and P. aeruginosa) (Table 1, Table 2 and Table 3). Staphylococcus aureus was also included as a representative Gram-positive bacterial strain. […] Polymyxin B 1, colistin 2, vancomycin and gentamicin were used as positive inhibitor comparator compounds. Compounds were counter-screened against human proximal tubular epithelial cells (HK-2), using LDH release as a general indicator of cellular toxicity.
# Cytotoxicity to human kidney proximal tubular epithelial cell line, HK-2 (ATCC CRL-2190, sourced from ATCC; Manassas, VA, USA) was determined using the LDH assay as previously described. In brief, HK-2 cells were seeded as 2000 cells/well in black-walled clear bottom 384-well tissue culture treated plates (Corning, catalogue No. 3712) in DMEM/F12 medium (Gibco® 10565-042) containing 10% of Fetal Bovine Serum (FBS, Gibco® 10099-141) and incubated for 24 h at 37 °C, 5% CO2. Compounds were then added into each well with a concentration series from 300 µM to 2.3 µM in 2-fold dilutions. Colistin and polymyxin B were used as controls and tested at a final concentration range of 1 mM to 7.8 µM. The cells were incubated with the compounds for 24 h at 37 °C, 5% CO2. After the incubation, 5 µL of culture medium was added to 45 µL of LDH assay buffer (Biovision, K313-500) and incubated for 30 min at room temperature. The absorbance (ABS) was then read at 450 nm using a Polar Star Omega plate reader. The data was analysed by Prism 6 software (GraphPad Software, La Jolla, CA, USA). Results were calculated using the following equation: cytotoxicity %= (ABSsamples − ABSuntreated/ABS1%Triton X-100 − ABSuntreated) × 100.
# [2] = system: P. aeruginosa FADDI PA070; test: microbe, parasite or virus in culture; conditions: for MIC P. aeruginosa FADDI PA070: FADDI PA070, 18 h
# Description: as §1
# [3] = system: P. aeruginosa ATTC 27853; test: microbe, parasite or virus in culture; conditions: for MIC P. aeruginosa ATTC 27853: ATTC 27853, 18 h
# Description: as §1
# [4] = system: E. coli ATCC 25922; test: microbe, parasite or virus in culture; conditions: ATCC 25922, 18 h
# Description: as §1
# [5] = system: S. aureus ATCC 25923; test: microbe, parasite or virus in culture; conditions: for MIC S. aureus ATCC 25923: ATCC 25923, 18 h
# Description: as §1
# [6] = system: K. pneumoniae ATCC 13833; test: microbe, parasite or virus in culture; conditions: for MIC K. pneumoniae ATCC 13833: ATCC 13833, 18 h
# Description: as §1
# [7] = system: A. baumannii ATCC 19606; test: microbe, parasite or virus in culture; conditions: for MIC A. baumannii ATCC 19606: ATCC 19606, 18 h
# Description: as §1
# [8] = system: K. pneumoniae BAA 2146; test: microbe, parasite or virus in culture; conditions: for MIC K. pneumoniae BAA 2146: BAA 2146, 18 h
# Description: as §1
# [9] = system: K. pneumoniae ATCC 700603; test: microbe, parasite or virus in culture; conditions: for MIC K. pneumoniae ATCC 700603: ATCC 700603, 18 h
# Description: as §1
SMILES,MIC P. aeruginosa FADDI PA070 [2] [µg/mL],MIC P. aeruginosa ATTC 27853 [3] [µg/mL],MIC E. coli ATCC 25922 [4] [µg/mL],MIC S. aureus ATCC 25923 [5] [µg/mL],MIC K. pneumoniae ATCC 13833 [6] [µg/mL],MIC A. baumannii ATCC 19606 [7] [µg/mL],MIC K. pneumoniae BAA 2146 [8] [µg/mL],MIC K. pneumoniae ATCC 700603 [9] [µg/mL],"MIC ([2]; Pseudomonas aeruginosa, FADDIPA070, 18 h, read-out: MIC P. aeruginosa FADDI PA070) [µg/mL]","MIC ([3]; Pseudomonas aeruginosa, ATTC27853, 18 h, read-out: MIC P. aeruginosa ATTC 27853) [µg/mL]","MIC ([5]; Staphylococcus aureus, ATCC25923, 18 h, read-out: MIC S. aureus ATCC 25923) [µg/mL]","MIC ([6]; Klebsiella pneumoniae, ATCC13833, 18 h, read-out: MIC K. pneumoniae ATCC 13833) [µg/mL]","MIC ([7]; Acinetobacter baumannii, ATCC19606, 18 h, read-out: MIC A. baumannii ATCC 19606) [µg/mL]","MIC ([8]; Klebsiella pneumoniae, BAA2146, 18 h, read-out: MIC K. pneumoniae BAA 2146) [µg/mL]","MIC ([9]; Klebsiella pneumoniae, ATCC700603, 18 h, read-out: MIC K. pneumoniae ATCC 700603) [µg/mL]",CC50 at 24 h [1] [µM]
CC(C)C[C@@H]1NC(=O)[C@@H](Cc2ccccc2)NC(=O)[C@H](CCN)NC(=O)[C@@H](NC(=O)[C@@H](CCN)NC(=O)[C@@H](NC(=O)CCCOc2ccccc2)[C@@H](C)O)CCNC(=O)[C@H]([C@@H](C)O)NC(=O)[C@H](CCN)NC(=O)[C@H](CCN)NC1=O [Compound 26] ({Butanoyl(4-OPh)}-T[dDab][Dab][Dab][dF]L[Dab][Dab]T; lactam 3-C),>32,2,1,>32,4,16,1,1,,,,,,,,> 300
"CNC(C)C1CCC(N)C(OC2C(N)CC(N)C(OC3OCC(C)(O)C(NC)C3O)C2O)O1 (stereo not drawn) [Gent, gentamicin, reference compound]",,,,,,,,,32,> 32,0.5,0.25,32,> 32,8,> 300
CC(C)C[C@@H]1NC(=O)[C@@H](Cc2ccccc2)NC(=O)[C@H](CCN)NC(=O)[C@@H](NC(=O)CNC(=O)[C@@H](NC(=O)CCCOc2ccccc2)[C@@H](C)O)CCNC(=O)[C@H]([C@@H](C)O)NC(=O)[C@H](CCN)NC(=O)[C@H](CCN)NC1=O [Compound 51] ({Butanoyl(4-OPh)}-TG[Dab][Dab][dF]L[Dab][Dab]T; lactam 3-C),,8,2,>32,>32,16,4,16,,,,,,,,> 300

# Second part, led by results:
MIC P. aeruginosa FADDI PA070 [2] [µg/mL],MIC P. aeruginosa ATTC 27853 [3] [µg/mL],MIC E. coli ATCC 25922 [4] [µg/mL],MIC S. aureus ATCC 25923 [5] [µg/mL],MIC K. pneumoniae ATCC 13833 [6] [µg/mL],MIC A. baumannii ATCC 19606 [7] [µg/mL],MIC K. pneumoniae BAA 2146 [8] [µg/mL],MIC K. pneumoniae ATCC 700603 [9] [µg/mL],"MIC ([2]; Pseudomonas aeruginosa, FADDIPA070, 18 h, read-out: MIC P. aeruginosa FADDI PA070) [µg/mL]","MIC ([3]; Pseudomonas aeruginosa, ATTC27853, 18 h, read-out: MIC P. aeruginosa ATTC 27853) [µg/mL]","MIC ([5]; Staphylococcus aureus, ATCC25923, 18 h, read-out: MIC S. aureus ATCC 25923) [µg/mL]","MIC ([6]; Klebsiella pneumoniae, ATCC13833, 18 h, read-out: MIC K. pneumoniae ATCC 13833) [µg/mL]","MIC ([7]; Acinetobacter baumannii, ATCC19606, 18 h, read-out: MIC A. baumannii ATCC 19606) [µg/mL]","MIC ([8]; Klebsiella pneumoniae, BAA2146, 18 h, read-out: MIC K. pneumoniae BAA 2146) [µg/mL]","MIC ([9]; Klebsiella pneumoniae, ATCC700603, 18 h, read-out: MIC K. pneumoniae ATCC 700603) [µg/mL]",SMILES,CC50 at 24 h [1] [µM]
8,2,16,>32,>32,>32,8,8,,,,,,,,CCCCCCCC(=O)N[C@@H](CCO)C(=O)N[C@H](CCN)C(=O)N[C@H]1CCNC(=O)[C@H]([C@@H](C)O)NC(=O)[C@H](CCN)NC(=O)[C@H](CCN)NC(=O)[C@H](CC(C)C)NC(=O)[C@@H](Cc2ccccc2)NC(=O)[C@H](CCN)NC1=O [Compound 31] (Octanoyl-[hSer][dDab][Dab][Dab][dF]L[Dab][Dab]T; lactam 3-C),181
,16,4,>32,>32,32,16,>32,,,,,,,,CCCCCCCC(=O)N[C@H](C(=O)N[C@H](CO)C(=O)N[C@H]1CCNC(=O)[C@H]([C@@H](C)O)NC(=O)[C@H](CCN)NC(=O)[C@H](CCN)NC(=O)[C@H](CC(C)C)NC(=O)[C@@H](Cc2ccccc2)NC(=O)[C@H](CCN)NC1=O)[C@@H](C)O [Compound 36] (Octanoyl-T[dS][Dab][Dab][dF]L[Dab][Dab]T; lactam 3-C),213
